Data as given in patent publication US20030207932A1, “Compositions that prevent post-traumatic hyperpigmentation and methods related thereto” (priority 2002, published 2003).

System: patients with a strong genetic predisposition to post traumatic hyperpigmentation
Assay: Proof of concept in patients predisposed to post traumatic hyperpigmentation
Format: in vivo, human
Conditions: five subjects; oral zafirlukast alone, 20 mg two times daily, two weeks prior and thereafter for two months
Protocol: The patients were known to have this predisposition because prior trauma pigmented areas. Five of the subjects were given the oral composition zafirlukast, two weeks prior and thereafter for two months. The dosage was 20 mg two time daily. The other five individuals were give the same medication that the same dosage for the same amount of time, but in addition, were also given a topical preparation.
Five further patients were then selected with obvious genetic predisposition to post traumatic hyperpigmentation. They were given only the topical composition after their surgical procedure. The topical composition was applied three times daily for two months after the procedure. […] This was completely unexpected. The topical composition, as administered, is described in Table 1 below.

Q: For `COc1cc(C(=O)NS(=O)(=O)c2ccccc2C)ccc1Cc1cn(C)c2ccc(NC(=O)OC3CCCC3)cc12` [zafirlukast], which development of hyperpigmentation is on record?
A: In no case did hyperpigmentation develop
